Reference: publication PMC7195606 (Pharmacology, biochemistry, and behavior, 2020)

Tests used:
[1] = ref Miner et al., 2017, cited from earlier work; for decrease in temperature after the first injection: first injection of a binge regimen
[2] = ref Piao et al., 2015; cited from earlier work
C57Bl/6J mice [3] = experiment: Rectal; type: in vivo; conditions: for effect on body temperature, females / effect on body temperature, males / maximal decrease in temperature, females / maximal decrease in temperature, males / effect on body temperature: single IP injection; for effect on body temperature, females / effect on body temperature, males / effect on body temperature: ambient 22-23 °C; for effect on body temperature: males and females
C57Bl/6J mice [4] = experiment: Organ weights normalized to body weight; type: in vivo; conditions: 20-160 mg/kg IP, normalized according to body weight
C57Bl/6J mice [5] = experiment: Histological analysis of organs by hematoxylin-eosin staining; type: in vivo; conditions: at lethal doses
[6] = lower doses (<10 mg/kg IP); ref not given; cited from earlier work
C57Bl/6J mice [7] = experiment: Lethality; type: in vivo; conditions: 2 hr observation; for lethal effects: 20-160 mg/kg IP (MDPV up to 140 mg/kg)

Structure (SMILES)	effect on body temperature, females (C57Bl/6J mice [3]; females)	effect on body temperature, males (C57Bl/6J mice [3]; males)	normalized heart weight (C57Bl/6J mice [4])	normalized liver weight (C57Bl/6J mice [4])	liver histology (hematoxylin-eosin) (C57Bl/6J mice [5])	maximal decrease in temperature, females (C57Bl/6J mice [3]; females)	time post injection with significant hypothermia vs baseline (C57Bl/6J mice [3]; males, 20 mg/kg IP) [min]	maximal decrease in temperature, males (C57Bl/6J mice [3]; males)	lethal effects (C57Bl/6J mice [7])	time post injection with significant hypothermia vs baseline (C57Bl/6J mice [3]; males, 80 mg/kg IP)	further results
CNC(C)C(=O)c1ccc2c(c1)OCO2 (stereo not shown) [methylone]											decrease in temperature after the first injection [1]: 4 °C; LD50 compared with MA or MDMA [2]: slightly lower than that of MA or MDMA
CN[C@@H](C)Cc1ccccc1 [MA, methamphetamine]	no significant differences in temperature post-injection	increased body temperature	increased normalized heart weight in a dose dependent manner	significantly increased normalized liver weight	minor changes in cell morphology in the liver						timepoint of return of temperature to baseline (C57Bl/6J mice [3]; males, 40 mg/kg IP): ≤ 100 min
CNC(C)C(=O)c1ccc(C)cc1 (stereo not shown) [MMC, 4-methyl-methcathinone]	profound hypothermic effects	greatest temperature decreases in males compared to the five other drugs	increased normalized heart weight in a dose dependent manner	significantly increased normalized liver weight	minor changes in cell morphology in the liver	≈ 6 °C	20	≈ 4 °C			time post injection with significant hypothermia vs baseline (C57Bl/6J mice [3]; males, 120 mg/kg IP): 20 min
CNC(C)C(=O)c1ccccc1 (stereo not shown) [MCAT, methcathinone]						≈ 7 °C	20	≈ 3 °C	this occurred at the highest dose and only in one subject	failed to show significance	hyperthermia [6]: ≈ 1 °C; time of peak hypothermic effect after injection (C57Bl/6J mice [3]; both males and females): 60 min; effect on body temperature (C57Bl/6J mice [3]): pronounced hypothermic effects; time post injection with significant hypothermia vs baseline (C57Bl/6J mice [3]; males, 120 mg/kg IP): did not identify an significant effects; time post injection with significant hypothermia vs baseline (C57Bl/6J mice [3]; males, 160 mg/kg IP): 60 min
CNC(C)Cc1ccc2c(c1)OCO2 (stereo not shown) [MDMA, 3,4-methylenedioxymethamphetamine]	hypothermic effects	not significant at any dose	increased normalized heart weight in a dose dependent manner	did not significantly affect liver weight	minor changes in cell morphology in the liver						decrease in temperature after the first injection [1]: 3 °C; LD50 as base (C57Bl/6J mice [7]; single IP injection, males and females pooled): 100.92 mg/kg
C[C@H](N)C(=O)c1ccccc1 [CAT, cathinone]						≈ 7 °C	20	≈ 5 °C	no lethal effects at any dose	20 min	hyperthermia [6]: ≈ 1 °C; time post injection with significant hypothermia vs baseline (C57Bl/6J mice [3]; females, 40 mg/kg IP): lasted the entire duration of the experiment; time post injection with significant hypothermia vs baseline (C57Bl/6J mice [3]; males, 40 mg/kg IP): 20 min
CCCC(C(=O)c1ccc2c(c1)OCO2)N1CCCC1 (stereo not shown) [MDPV, methylenedioxypyrovalerone]						≈ 2 °C		≈ 2 °C	no lethal effects at any dose	did not identify any significant differences	effects on temperature ([1]; 1 mg/kg IP): did not find effects; time post injection with significant hypothermia vs baseline (C57Bl/6J mice [3]; females, 80 mg/kg IP): 20 min; time post injection with significant hypothermia vs baseline (C57Bl/6J mice [3]; females, 100 mg/kg IP): 20 min; time post injection with significant hypothermia vs baseline (C57Bl/6J mice [3]; females, 120 mg/kg IP): 20 min; effect on body temperature (C57Bl/6J mice [3]): significant hypothermic effects in both males and females; time post injection with significant hypothermia vs baseline (C57Bl/6J mice [3]; males, 140 mg/kg IP): 20 min
